Earlier results, collected in patent US11407830B2, “Methods of treating cancer with anti-PD-1 antibodies” (TESARO, INC., priority 2017, dated 2022).

How the values were obtained:
[1] = test system: PARP activity in various cell lines
[2] = test system: non-small-cell lung cancer, melanoma, and renal-cell cancer; conditions: Phase I clinical trial

Row | Molecule | IC50 ([1]; read-out: IC50, PARP activity in cells, hydrogen peroxide DNA damage) [nM] | IC90 ([1]; read-out: inhibitory concentration at 90% of control (IC90), PARP activity in cells, hydrogen peroxide DNA damage) [nM] | tumor response [2]
1 | NC(=O)c1cccc2cn(-c3ccc([C@@H]4CCCNC4)cc3)nc12 [Niraparib, (3 S)-3-[4-{7-(aminocarbonyl)-2H-indazol-2-yl}phenyl]piperidine] | ~4 | ~50 | 
2 | nivolumab: monoclonal antibody targeting PD-1 |  |  | complete or partial responses
